No end group written: not given here. succinylated CM‑chitin = succinylated carboxymethyl-chitin (CM-chitin), conjugated to the peptide; sulfated CM‑chitin = sulfated carboxymethyl-chitin (CM-chitin), conjugated to the peptide; sulfated succinylated CM‑chitin = sulfated succinylated CM-chitin; succinylated CM‑Chitin = succinylated CM-chitin; CM‑Chitin = carboxymethyl chitin
Legend:
fibronectin = experiment: Cell adhesion-inhibitory test against fibronectin (competitive assay, number of adhered cells); assay type: cell-based, human; settings: endothelium cells of blood vessel, 37° C., one hour, 0 mg/ml control 160
From the text: (§1) A method for determining the activity of the CM-chitin derivatives of the present invention for inhibiting adhesion of cells to fibronectin or vitronectin will be described below. The competitive assays used herein have widely been employed tin the field of biochemistry and are detailed in, for instance, "Method in Enzymology", 1981, 82, pp. 803-831; and J. P. KOKAI Nos. Hei 1-309682 and Hei 2-174797.
(§2) Commercially available fibroneotin (derived from human; purchased from Seikaqaku Kogyo K. K.) and vitronectin (derived from human; purchased from Funakoshi Co., Ltd.) each was diluted to 1.0 μ1/ml and 2.0 μ1/ml with PBS (NaH2 PO4 0.005 M+NaCl 0.07 M), 0.5 ml of the resulting diluted solution was dispensed into a plastic plate having 24 wells and incubated at 37° C. overnight to perform coating of the plate. Then bovine serum albumin (BSA 1%) was added followed by incubation at 37° C. for one hour for inhibiting the occurrence of nonspecific adsorption, then washing with PBS in the usual manner and sufficient drainage to give an adsorption plate.
(§3) A CM-chitin derivative obtained through lyophilization was diluted with Dulbecco's Modified Eagles Medium (hereunder referred to as "DMEM") to give solutions of the CM-chitin derivative having concentrations of 0, 0.25, 0.5, 1.0 and 1.5 mg/ml respectively. Each of the solutions (0.25 ml) was dispensed to the plate prepared above, 0.25 ml of a suspension of endothelium cells of blood vessel (4×10^6 cells/ml) was added to the plate and incubated at 37° C. for one hour to thus cause cohesion of the cells. The plate was washed three times with DMEM medium to remove non-adhesive cells, then the adhered cells were peeled off with a 0.025% EDTA trypsin solution and stained with a 2% Trypan Blue solution to determine the number of the adhered cells.

[1] = test system: human plasma rich in platelet; experiment: Platelet coagulation-inhibitory activity in vitro, transmittance by aggregometer; assay type: cell-based; settings: 37° C., 3 minutes preincubation; for Platelet Coagulation-Inhibitory Action IC50, ADP Stimulation: ADP stimulation (50 μM ADP solution); for Platelet Coagulation-Inhibitory Action IC50, Collagen Stimulation: collagen stimulation (200 μg/ml collagen solution)
Method: The platelet coagulation-inhibitory effect of the CM-chitin derivative of the present invention was assayed, in vitro, using human plasma rich in platelet. The experimental method will be described below.
To fresh human blood, there was added 1/9 volume of a 3.8% sodium citrate solution, the resulting mixture was centrifuged (1000 rpm; for 10 minutes) and the upper layer was separated as a plasma rich in platelet. A lyophilized CM-chitin derivative was dissolved in physiological saline to give a plurality of solutions having various concentrations ranging from 0 to 1.5 mg/ml. Each of the solutions (25 μ1) was added to 200 µl of the plasma, incubated at 37° C. for 3 minutes, then a 50 μM of ADP (adenosine diphosphate) solution or a 200 μg/ml collagen solution was added to determine the extent of coagulation in terms of transmittance determined by an aggregometer.
Rate of Coagulation Inhibition=(1-T/T .)×100%
T . : transmittance observed when a salt of CM-chitin derivative was not added.
T : transmittance observed when a salt of CM-chitin derivative was added.

vitronectin = experiment: Cell adhesion-inhibitory test against vitronectin (competitive assay, number of adhered cells); assay type: cell-based, human; settings: endothelium cells of blood vessel, 37° C., one hour, 0 control 249
From the text: as §1, §2
as §3, with “A CM-chitin derivative obtained through lyophilization was diluted with Dulbecco's Modified Eagles Medium (hereunder referred to as "DMEM") to give solutions of the CM-chitin derivative having concentrations of 0, 0.25, 0.5, 1.0 and 1.5 mg/ml respectively.” left out

[2] = concentration 10 mg/ml (so in the source)
[3] = concentration 50 mg/ml (so in the source)
[4] = concentration 100 mg/ml (so in the source)
[5] = concentration 300 mg/ml (so in the source)

Row | Compound | Cell Adhesion-Inhibitory effect Against Fibronectin (number of adhered cells) (fibronectin; concentration 0.5 mg/ml) | Cell Adhesion-Inhibitory effect Against Fibronectin (number of adhered cells) (fibronectin; concentration 1.0 mg/ml) | Cell Adhesion-Inhibitory effect Against Fibronectin (number of adhered cells) (fibronectin; concentration 1.5 mg/ml) | Cell Adhesion-Inhibitory effect Against Fibronectin (number of adhered cells) (fibronectin; concentration .25 mg/ml) | Platelet Coagulation-Inhibitory Action IC50, ADP Stimulation [1] | Platelet Coagulation-Inhibitory Action IC50, Collagen Stimulation [1] | Cell Adhesion-Inhibitory effect Against Vitronectin (number of adhered cells) (vitronectin; [2]) | Cell Adhesion-Inhibitory effect Against Vitronectin (number of adhered cells) (vitronectin; [3]) | Cell Adhesion-Inhibitory effect Against Vitronectin (number of adhered cells) (vitronectin; [4]) | Cell Adhesion-Inhibitory effect Against Vitronectin (number of adhered cells) (vitronectin; [5])
1 | Succinylated CM-Chitin Arg-Gly-Asp [CM--chitin derivative-9] | 97 cell/well | 85 cell/well | 65 cell/well | 121 cell/well | 28 µg/mL | 9 µg/mL | 139 cell/well | 88 cell/well | 77 cell/well | 58 cell/well
2 | N=C(N)NCCC[C@H](N)C(=O)NCC(=O)N[C@@H](CC(=O)O)C(=O)O [ArgGlyAsp, H--(Arg--Gly--Asp)--OH, reference compound] | 162 cell/well | 141 cell/well | 83 cell/well | 157 cell/well | 27 µg/mL | 22 µg/mL | 171 cell/well | 132 cell/well | 104 cell/well | 73 cell/well
3 | Succinylated CM-Chitin-Arg-Gly-Asp-Ser ({succinylated CM‑chitin}-RGDS) [CM--chitin derivative-2] | 99 cell/well | 82 cell/well | 75 cell/well | 135 cell/well | 18 µg/mL | 10 µg/mL | 137 cell/well | 96 cell/well | 78 cell/well | 59 cell/well
4 | Succinylated CM-Chitin-(Arg-Gly-Asp)5 ({succinylated CM‑Chitin}-RGDRGDRGDRGDRGD) [CM--chitin derivative-12] | 101 cell/well | 89 cell/well | 77 cell/well | 125 cell/well | 30 µg/mL | 8 µg/mL | 150 cell/well | 101 cell/well | 80 cell/well | 59 cell/well
5 | Sulfated Succinylated CM-Chitin-Arg-Gly-Asp-Ser ({sulfated succinylated CM‑chitin}-RGDS) [CM--chitin derivative-15] | 89 cell/well | 65 cell/well | 37 cell/well | 105 cell/well | 15 µg/mL | 6 µg/mL | 115 cell/well | 69 cell/well | 54 cell/well | 38 cell/well
6 | Sulfated CM-Chitin-Arg-Gly-Asp-Ser ({sulfated CM‑chitin}-RGDS) [CM--chitin derivative-13] | 77 cell/well | 57 cell/well | 33 cell/well | 97 cell/well | 17 µg/mL | 7 µg/mL | 103 cell/well | 70 cell/well | 47 cell/well | 31 cell/well
7 | Phthaloyl derivative of CM-Chitin Arg-Gly-Asp-Ser (RGDS; also: conjugated to phthaloyl CM-chitin) [CM--chitin derivative-4] | 121 cell/well | 80 cell/well | 67 cell/well | 141 cell/well | 29 µg/mL | 15 µg/mL | 145 cell/well | 90 cell/well | 67 cell/well | 45 cell/well
8 | CM-Chitin-Arg-Gly-Asp-Ser ({CM‑Chitin}-RGDS) [CM--chitin derivative-1, rate of introduction of Arg-Gly-Asp-Ser fragments about 10%] | 106 cell/well | 79 cell/well | 69 cell/well | 131 cell/well | 15 µg/mL | 10 µg/mL | 148 cell/well | 89 cell/well | 72 cell/well | 41 cell/well
9 | CM-Chitin-Gly-Arg-Gly-Asp-Ser-Pro [CM--chitin derivative-19] | 106 cell/well | 79 cell/well | 56 cell/well | 127 cell/well | 19 µg/mL | 5 µg/mL | 130 cell/well | 92 cell/well | 63 cell/well | 39 cell/well
